Among the data in patent US11384078B2, “5,6-fused-bicyclic compounds and compositions for the treatment of parasitic diseases” (NOVARTIS AG, priority 2017, dated 2022) are EC50 values, retold here.

Like-named read-outs stand apart in the source and are kept apart here.

What all share (type): cell-based
The subject of assay [1] is Trypanosoma cruzi amastigotes cultured in 3T3 fibroblast cells. Nature of the assay: Assay for growth inhibition of kinetoplastid parasite Trypanosoma cruzi (beta-galactosidase Tulahuen strain, CPRG readout). The note with it: Trypanosoma cruzi, T. cruzi amastigotes in 3T3 fibroblast cells, read-out: Buckner infectious T. cruzi EC50. In a few lines: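 3T3 fibroblasts (1,000 cells/well) plated overnight, treated with compound in DMSO, then infected with 10,000 Lac-Z-expressing Tulahuen trypomastigotes. After 6 days, 0.6 mM CPRG with 0.6% NP-40 added for 2 h at room temperature; absorbance gives relative intracellular amastigote numbers. Benznidazole and nifurtimox serve as positive controls.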

The test system of assay [2] is Trypanosoma brucei brucei (Lister 427) strain. The experiment in a line: Assay for growth inhibition against Trypanosoma brucei brucei (Cell TiterGlo ATP luminescence). The conditions noted are these: Trypanosoma brucei, T. brucei brucei (Lister 427); read-out: T. Brucei (HAT) EC50. In a few lines: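 Growth read-out is cellular ATP by CellTiter-Glo luminescence, measured 30 min after reagent addition, following 2-day incubation at 37 °C in CO2. Parasites (10,000/mL, HMI-9 plus 10% FBS and 10% serum plus) faced 10 threefold dilutions in duplicate; IC50 taken as 50% growth inhibition versus untreated.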
A general note: ATP-based viability assays read luminescence as a measure of living cells.

In assay [3] the test system is L. donovani HU3 strain in mouse peritoneal macrophages. Nature of the assay: Assay for inhibition of parasitemia of Leishmania donovani in mouse macrophages (SYBR Green nuclei count, high-content imaging). The conditions noted are these: Leishmania donovani, Peritoneal macrophage, read-out: L. donovani in Mouse Macrophages EC50. The method, boiled down:
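Parasite numbers were counted from SYBR Green-stained nuclei imaged by high-content microscopy after paraformaldehyde fixation and Triton permeabilization. Before this, compound was applied for 5 days at 37° C to BALB/c peritoneal macrophages (2×10^4/well) that had been exposed 24 h to 4×10^5 L. donovani HU3 amastigotes harvested from infected mouse spleens.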

Assay [4] has as its system Leishmania donovani axenic amastigote. Nature of the assay: In vitro assay for growth inhibition of Leishmania donovani axenic amastigote (Cell TiterGlo luminescence). The note with it: Leishmania donovani, L. donovani axenic amastigotes in vitro; read-out: L. donovani amastigotes EC50. In a few lines:
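Compound-treated wells received 9600 axenic amastigotes in RPMI 1640-based medium at pH 5.5 (37 °C, 5% CO2). Growth measured as ATP luminescence (CellTiter-Glo) after 2-day incubation; DMSO and reference compounds served as controls.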

The mark [5] stands for this setting: L. donovani in mouse peritoneal macrophages.

By EC50 is commonly meant the concentration needed to bring the measured effect to its halfway point. With `Cc1cccnc1-c1cnc2nn(-c3cc(NC(=O)c4oc(CO)nc4C)ccc3F)cc2c1` [Compound 334, N-(4-fluoro-3-(5-(3-methylpyridin-2-yl)-2H-pyrazolo[3,4-b]pyridin-2-yl)phenyl)-2-(hydroxymethyl)-4-methyloxazole-5-carboxamide], the EC50 in assay [1] (Fibroblast) came to 1460 nM; in assay [2], 269 nM; in assay [3] (setting [5]) it was 1870 nM; in assay [4], 236 nM.
In the same order, the values of `O=C(Nc1ccc(F)c(-n2cc3cc(N4CCCC4)cnc3n2)c1)N1CC[C@@H](F)C1` [Compound 134, (3R)-3-fluoro-N-{4-fluoro-3-[5-(pyrrolidin-1-yl)-2H-pyrazolo[3,4-b]pyridin-2-yl]phenyl}pyrrolidine-1-carboxamide] are 20 nM, less than 23 nM, 5.4 nM and 23 nM.
Consider `O=C(Nc1ccc(F)c(-n2cc3cc(-c4ccc(F)cn4)cnc3n2)c1)N1CCC1` [Compound 330, N-{4-fluoro-3-[5-(5-fluoropyridin-2-yl)-2H-pyrazolo[3,4-b]pyridin-2-yl]phenyl}azetidine-1-carboxamide], for which the concentration giving a half-maximal response (EC50) amounted to 1 nM in assay [1] (Fibroblast), 1 nM in assay [2], 2 nM in assay [3] (setting [5]) and 1 nM in assay [4].
Consider `O=C(Nc1ccc(F)c(-n2cc3cc(C(F)(F)F)cnc3n2)c1)N1CC(F)(F)C1` [Compound 324, 3,3-difluoro-N-{4-fluoro-3-[5-(trifluoromethyl)-2H-pyrazolo[3,4-b]pyridin-2-yl]phenyl}azetidine-1-carboxamide], for which the EC50 is 16 nM in assay [1] (Fibroblast), 37 nM in assay [2], 45 nM in assay [3] (setting [5]) and 15 nM in assay [4].
In the same order, the values of `O=C(Nc1ccc(F)c(-n2cc3cc(N4CC5C(C4)C5(F)F)cnc3n2)c1)N1CC(F)C1` (centres unmarked) [Compound 204, N-[3-(5-{6,6-difluoro-3-azabicyclo[3.1.0]hexan-3-yl}-2H-pyrazolo[3,4-b]pyridin-2-yl)-4-fluorophenyl]-3-fluoroazetidine-1-carboxamide] are 2 nM, 5 nM, 4 nM and 74 nM.
Taken in the same sequence, the figures for `O=C(Nc1ccc(F)c(-n2cc3cc(N4CCOCC4)cnc3n2)c1)N1CC(F)(F)C1` [Compound 145, 3,3-difluoro-N-{4-fluoro-3-[5-(morpholin-4-yl)-2H-pyrazolo[3,4-b]pyridin-2-yl]phenyl}azetidine-1-carboxamide] were 18 nM, less than 23 nM, 4.7 nM and 5.4 nM.
For the compound `CC(C)CCc1cnc2nn(-c3cc(NC(=O)N4CC(F)C4)ccc3F)cc2c1` [Compound 27, 3-fluoro-N-{4-fluoro-3-[5-(3-methylbutyl)-2H-pyrazolo[3,4-b]pyridin-2-yl]phenyl}azetidine-1-carboxamide], the EC50 in assay [1] (Fibroblast) is 38 nM; in assay [2], less than 23 nM; in assay [3] (setting [5]), 15 nM; in assay [4], 33 nM.
Consider `O=C(Nc1ccc(F)c(-n2cc3cc(N4CCC4)cnc3n2)c1)N1CCC1` [Compound 10, N-(3-(5-(azetidin-1-yl)-2H-pyrazolo[3,4-b]pyridin-2-yl)-4-fluorophenyl)azetidine-1-carboxamide], for which the 50% effective concentration (EC50) in assay [1] is 4.8 nM; in assay [2] it was less than 23 nM; in assay [3] it was 7.8 nM; in assay [4], 16 nM.
On to `O=C(Nc1ccc(Cl)c(-n2cc3cc(N4CC(F)(F)C4)cnc3n2)c1)N1CCC1` [Compound 284, N-{4-chloro-3-[5-(3,3-difluoroazetidin-1-yl)-2H-pyrazolo[3,4-b]pyridin-2-yl]phenyl}azetidine-1-carboxamide], for which the EC50 is 15 nM in assay [1] (Fibroblast), 15 nM in assay [2], 56 nM in assay [3] (setting [5]) and 27 nM in assay [4].
As to `Cc1nc(C)c(C(=O)Nc2ccc(F)c(-n3cc4cc(N(C)C)cnc4n3)c2)o1` [Compound 154, N-{3-[5-(dimethylamino)-2H-pyrazolo[3,4-b]pyridin-2-yl]-4-fluorophenyl}-2,4-dimethyl-1,3-oxazole-5-carboxamide], the EC50 in assay [1] (Fibroblast) was 23 nM; in assay [2], 37 nM; in assay [3] (setting [5]) it was 78 nM; in assay [4], 53 nM.
Taken in the same sequence, the figures for `CCC(C)(C)c1cnc2nn(-c3cc(NC(=O)c4ccco4)ccc3F)cc2c1` [Compound 60, N-{4-fluoro-3-[5-(2-methylbutan-2-yl)-2H-pyrazolo[3,4-b]pyridin-2-yl]phenyl}furan-2-carboxamide] were 440 nM, 1300 nM, 2400 nM and 2000 nM.
Taken in the same sequence, the figures for `CC(C)OC(=O)Nc1cnc2nn(-c3cc(NC(=O)c4ccco4)ccc3F)cc2c1` [Compound 123, propan-2-yl N-{2-[2-fluoro-5-(furan-2-amido)phenyl}-2H-pyrazolo[3,4-b]pyridin-5-yl}carbamate] were 4.4 nM, less than 23 nM, 8.9 nM and 9.4 nM.
In the same order, the values of `CC(C)c1cnc2nn(-c3cc(NC(=O)C4CCCCO4)ccc3F)cc2c1` (centres unmarked) [Compound 80, N-{4-fluoro-3-[5-(propan-2-yl)-2H-pyrazolo[3,4-b]pyridin-2-yl]phenyl}oxane-2-carboxamide] are 92 nM, 170 nM, 410 nM and 410 nM.
Consider `O=C(Nc1ccc(F)c(-n2cc3cc(Br)cnc3n2)c1)N1CC(F)C1` [Compound 126, N-(3-(5-bromo-2H-pyrazolo[3,4-b]pyridin-2-yl)-4-fluorophenyl)-3-fluoroazetidine-1-carboxamide], for which the EC50 in assay [1] was 14 nM; in assay [2], less than 23 nM; in assay [3] it was 14 nM; in assay [4], 24 nM.
Turning to `O=C(Nc1ccc(F)c(-n2cc3cc(C4CCOCC4)cnc3n2)c1)N1CCC1` [Compound 160, N-{4-fluoro-3-[5-(oxan-4-yl)-2H-pyrazolo[3,4-b]pyridin-2-yl]phenyl}azetidine-1-carboxamide], the EC50 in assay [1] (Fibroblast) was 5.1 nM; in assay [2], less than 23 nM; in assay [3] (setting [5]), 9.8 nM; in assay [4], 4.3 nM.
In the same order, the values of `O=C(Nc1ccc(F)c(-n2cc3cc(C4CCN(Cc5ccccc5)CC4)cnc3n2)c1)N1CC(F)C1` [Compound 296, N-{3-[5-(1-benzylpiperidin-4-yl)-2H-pyrazolo[3,4-b]pyridin-2-yl]-4-fluorophenyl}-3-fluoroazetidine-1-carboxamide] are 5 nM, 5 nM, 2 nM and 216 nM.
As to `O=C(Nc1ccc(F)c(-n2cc3cc(CC(F)(F)F)cnc3n2)c1)N1CC[C@@H](F)C1` [Compound 162, (3R)-3-fluoro-N-{4-fluoro-3-[5-(2,2,2-trifluoroethyl)-2H-pyrazolo[3,4-b]pyridin-2-yl]phenyl}pyrrolidine-1-carboxamide], the EC50 is 1.8 nM in assay [1] (Fibroblast), less than 23 nM in assay [2], 4.5 nM in assay [3] (setting [5]) and 7 nM in assay [4].
